PMC9170688, “Gametocyte-specific and all-blood-stage transmission-blocking chemotypes discovered from high throughput screening on Plasmodium falciparum gametocytes” (Communications Biology, 2022)
Entries after “also recorded” stand apart in the source; their conditions may differ. Like-named read-outs stand apart in the source and are kept apart here.

Experiments:
[1] = tested on: P. falciparum NF54 pfs16-GFP-PyLUC gametocytes; experiment: P. falciparum gametocyte luminescence assay (PfLuc), line NF54 pfs16-GFP-PyLUC; assay type: cell-based, Plasmodium falciparum; details: Plasmodium falciparum, NF54, read-out: Pf Gametocytes NF54 pfs16 (IC50 nM)
Experimental: (§1) To exclude false positive compounds that may interfere with the click beetle CBG99 luciferase signal and to confirm the activity on gametocytes produced by other P. falciparum lines, we tested the above 638 compounds at a single concentration of 10 µM on gametocytes from two NF54 strain derived lines: pfs16-GFP-PyLUC (Photinus pyralis luciferase under the same pfs16 promoter)[14],[16],[27] and hsp86-PpyRE13 that was generated for this work to express the mutated Photinus pyralis PpyRE13 luciferase in gametocytes under the promoter of the pfhsp86 gene.
(§2) With the selected 84 compounds, the subsequent step aimed at determining the gametocyte inhibition potency and the parasite stage selectivity between the gametocytes and the asexual stages in the NF54 hsp86-PpyRE13. […] Similar data were obtained considering the gametocyte IC50 values measured in the NF54 pfs16-GFP-PyLUC strain (see Supplementary Data 2).
(§3) Parasite gametocyte luminescence assays were performed in 384-well plates (Thermo, 4332, USA) by infected red blood cells seeded at 40 µL/well at a haematocrit of 0.625% for the strain 3D7elo1-pfs16-CBG99, 1.875% for both strains NF54 hsp86-PpyRE13 and NF54 pfs16-GFP-PyLUC. Assay were performed in the medium: 10.44 g/L RPMI 1640 Medium (Gibco, 51800043), 5.95 g/L HEPES (Sigma, H4034), 50 mg/L Hypoxantine (Sigma, 56700), 10% heat inactivated human serum, 10 ml of Neomycin solution (Sigma, N1142) and 2.1 g/L NaHCO3 (Sigma, 144-55-8). Compounds or DMSO as control were pre dispensed on plates, from 10 mM DMSO stock solutions, via an acoustic droplet ejection device (ATS-100, EDC Biosystems) to achieve the final desired concentration. Assay plates were incubated for 48 h at 37 °C in 4% CO2, 3% O2, and 93% N2 modified atmosphere. After incubation, 20 µL/well of a solution of luciferin (Regis, 1-360242-200) potassium/sodium salt (300 µg/ml) are added to the assay plates and read at suitable luminescence detection after 1 min incubation at room temperature. The whole HTS was performed in 7 rounds of 30–80 plates each in two months’ time.

[2] = tested on: P. falciparum strain NF54-hsp70-luc stage V gametocytes fed to Anopheles stephensi mosquitoes; experiment: whole plant or invertebrate; assay type: in vivo, Plasmodium falciparum; details: for transmission blocking activity in SMFA (words, rank): tested at 1 and 10 µM
Experimental: The above selected 30 compounds were subjected to a phenotypic male gamete exflagellation assay. This assay measures the viability of male gametocytes by quantitating the final step of maturation into motile microgametes in vitro[24]. This process naturally occurs in the mosquito gut within minutes from the blood meal. The acquisition of time lapse videos of gamete motility in bright field microscopy and the subsequent analysis to count exflagellation centres were performed in an automated HTS format in 384-well plates. The compounds were tested in two independent biological replicates at the concentration of 1 µM. […] The standard membrane feeding assay (SMFA) is used to measure the parasite transmission through mosquito. In this assay, mature stage V gametocytes of the P. falciparum strain NF54-hsp70-luc were treated with 1 and 10 µM of the nine selected compounds for 24 h, added with human red blood cells and serum to achieve a haematocrit of 50% and then fed to mosquitoes. Luminescence was analyzed in the mosquito salivary glands 8 days post-feeding.
SMFA was performed commercially by TropiQ Health Sciences (Nijmegen, The Netherlands). Test samples were diluted in DMSO and then in RPMI medium (Gibco, 51800043) to achieve a final DMSO concentration of 0.1%. Diluted samples were combined with stage V gametocytes from P. falciparum strain NF54-hsp70-luc and incubated for 24 h. Subsequently, human red blood cells and human serum with the sample were added to achieve a haematocrit of 50%. The blood meal was fed to two-day old Anopheles stephensi mosquitoes that were starved the night prior to the blood meal. […] Mosquito infection was analyzed 8 days post-feeding by luminescence measurements of whole mosquitoes as described previously. For each feeder, luminescence intensity was analyzed in 15–24 mosquitoes per feeder (N = 1, n = 15–24). Luminescence background levels were determined from 15–24 uninfected mosquitoes. Controls: vehicle (0.1% DMSO) in duplicate.

[3] = tested on: P. falciparum NF54 male gametocytes (stage V); experiment: Male gamete exflagellation assay; assay type: cell-based, Plasmodium falciparum; details: for Inhibition of male exflagellation at 1 µM: 48 h; for activity at 1 µM: Plasmodium falciparum
Experimental: The above selected 30 compounds were subjected to a phenotypic male gamete exflagellation assay. This assay measures the viability of male gametocytes by quantitating the final step of maturation into motile microgametes in vitro[24]. This process naturally occurs in the mosquito gut within minutes from the blood meal. The acquisition of time lapse videos of gamete motility in bright field microscopy and the subsequent analysis to count exflagellation centres were performed in an automated HTS format in 384-well plates. The compounds were tested in two independent biological replicates at the concentration of 1 µM. […] The results of this study led to the identification of 16 compounds with anti-exflagellation activity (Fig. 4). […] The standard membrane feeding assay (SMFA) is used to measure the parasite transmission through mosquito. In this assay, mature stage V gametocytes of the P. falciparum strain NF54-hsp70-luc were treated with 1 and 10 µM of the nine selected compounds for 24 h, added with human red blood cells and serum to achieve a haematocrit of 50% and then fed to mosquitoes. Luminescence was analyzed in […] 8 days post-feeding.
Asexual parasites of the NF54 line, kindly obtained from Elena Levashina’s laboratory (Max Plank Institute for Infection Biology, Berlin, Germany), were seeded at 1% total parasitemia and grown for 16 days changing medium every day until development of stage V gametocytes (about 1–2% of stage V gametocytemia). 100 µl of gametocyte culture was seeded in each well of a 96 well-plate and 100 µl of 2× concentration of compounds or DMSO as control were added to each well to achieve the desired final concentration. Assay plates were incubated for 48 h at 37 °C in 4% CO2, 3% O2, and 93% N2 modified atmosphere. After the incubation period, 100 µl of medium were removed from each well and the other 100 µl were transferred to a black imaging 96 well plate (ibidi) containing 100 µl of complete medium supplemented with 40 µM of xanthurenic acid. After 15 min, exflagellation events were captured by three ten-second videos each well with an Olympus IX83 inverted microscope with a UPLSAPO 10× N.A. 0.75 objective (Olympus, Japan), equipped with a Hamamatsu ORCA-Flash 4.0 V3 camera. Each video was analyzed using the Icy bio-image analysis software (http://icy.bioimageanalysis.org/) to count the number of exflagellation events.

[4] = tested on: P. falciparum NF54 hsp86-PpyRE13 gametocytes; experiment: P. falciparum gametocyte luminescence assay (PfLuc), line NF54 hsp86-PpyRE13; assay type: cell-based, Plasmodium falciparum; details: for IC50: Plasmodium falciparum, NF54, read-out: Pf Gametocytes NF54 HSP86 (IC50 nM); for gametocyte specificity / selectivity (gametocytes vs asexual stages): NF54 hsp86-PpyRE13, ratio of asexual stage (pLDH) to gametocyte (PfLuc) IC50
Experimental: as §1, §2, §3

[5] = NF54, read-out: Exflagellation @ 1 uM (% of DMSO) 1
[6] = NF54, read-out: Exflagellation @ 1 uM (% of DMSO) 2

Compound	IC50 [1]	SMFA (average # of events) 1 µM ([2]; 1 µM)	SMFA (average # of events) 10 µM [2]	Inhibition of male exflagellation at 1 µM ([3]; 1 µM, Replicate 1)	Inhibition of male exflagellation at 1 µM ([3]; 1 µM, Replicate 2)	activity at 1 µM [3, 5]	activity at 1 µM [3, 6]	IC50 [4]	transmission blocking activity in SMFA (words, rank) ([2]; 24 h treatment)	gametocyte specificity / selectivity (gametocytes vs asexual stages) [4]	transmission blocking in SMFA ([2]; 1 µM, 24 h treatment)	inhibition at 1 µM ([2]; read-out: inhibition of parasite transmission (SMFA))	male gamete exflagellation reduced to ([3]; 1 µM)
Cc1ccc(Nc2cc(C)nc(Nc3ccc(NC(=O)c4cc5ccccc5oc4=O)cc3)n2)cc1 [Compound 63]	225 nM	2365.33 ± 1952.29	6.33 ± 1.79	62.7119	21.3333	62.7%	21.3%	1870 nM	–	–	–	–	–
COc1ccc(NC(=O)Nc2ccc(Nc3nc(C)cc(Nc4ccc(C)cc4)n3)cc2)cc1 [Compound 65]	480 nM	4000.86 ± 3085.37	5.96 ± 1.99	5.085	52.8	5.08%	52.8%	431 nM	–	–	–	–	–
COc1ccc(Nc2cc(C)nc(Nc3ccc(NC(=O)c4cc(C)cc(C)c4)cc3)n2)cc1 [Compound 64]	264 nM	3707.46 ± 3510.94	3885.67 ± 4295.41	108.475	123.2	108%	123%	215 nM	–	–	–	–	–
COc1ccccc1Cn1cc2c(-c3ccc(F)cc3)nnc-2c2cc(OC)c(OC)cc21 [Compound 31]	277 nM	2637.13 ± 1570.14	1559.87 ± 983.2	80.597	111.628	80.6%	112%	496 nM	moderate transmission blocker	–	–	–	–
O=C(c1ccc([N+](=O)[O-])o1)N1CCC(Cn2cnc3ccccc32)CC1 [Compound 69]	555 nM	2021.92 ± 1839.86	6.17 ± 1.81	–	–	17.3%	57.7%	1500 nM	–	around six	–	–	–
COc1cc(CNCC2CCNCC2)ccc1OCc1cccc(Cl)c1 [Compound 53]	876 nM	10.04 ± 12.81	6.29 ± 1.85	19.2	35.9	19.2%	35.9%	1820 nM	–	–	most active; also recorded: equivalent to that of the positive control MMV0048	~100%	20–30%
OC(c1ccc(Cl)cc1)C1CCN(CCCN2CCC(C(O)c3ccc(Cl)cc3)CC2)CC1 (stereo not shown) [Compound 13]	582 nM	488.21 ± 436.95	7.92 ± 1.44	15.4	64.1	15.4%	64.1%	1600 nM	second most active	–	–	–	–
Clc1ccc(Nc2nc(-c3ccccn3)cs2)nc1 [Compound 39]	308 nM	1612.33 ± 1234.03	7.33 ± 2.82	30.5085	73.2558	30.5%	73.3%	382 nM	efficiently blocks parasite transmission	–	–	–	–
Cc1ccc2nc(-c3ccccc3)c(CSc3cccc[n+]3[O-])n2c1 [Compound 16]	167 nM	1226.92 ± 1130.89	9.5 ± 9.34	23.1	19.2	23.1%	19.2%	219 nM	third most active	around 6 fold	–	–	–
